According to ChEMBL document CHEMBL3045701, “Comprehensive structureactivity relationship analysis of substituted 5-(biphenyl-4-ylmethyl) pyrazoles derivatives as AT1 selective angiotensin II receptor antagonists: 2D and kNNMFA QSAR approach” (Med Chem Res, 2013):

Each molecule was assayed against T1, Angiotensin II receptor (AT-1) type-1 (Rattus norvegicus, UniProt P29089+P25095) (assay: Antagonist activity at AT1 receptor in Rattus norvegicus (rat) liver).
T1 sequence (P29089 whole entry): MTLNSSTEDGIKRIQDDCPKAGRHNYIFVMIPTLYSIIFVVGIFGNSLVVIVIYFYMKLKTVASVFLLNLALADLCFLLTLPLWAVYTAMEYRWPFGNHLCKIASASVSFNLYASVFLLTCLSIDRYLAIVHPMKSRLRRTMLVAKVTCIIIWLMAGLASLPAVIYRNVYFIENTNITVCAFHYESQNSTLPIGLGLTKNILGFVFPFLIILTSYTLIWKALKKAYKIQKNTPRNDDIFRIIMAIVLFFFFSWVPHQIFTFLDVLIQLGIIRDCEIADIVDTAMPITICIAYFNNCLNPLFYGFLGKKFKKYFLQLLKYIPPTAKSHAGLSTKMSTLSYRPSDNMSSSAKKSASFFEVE
T1 sequence (P25095 whole entry): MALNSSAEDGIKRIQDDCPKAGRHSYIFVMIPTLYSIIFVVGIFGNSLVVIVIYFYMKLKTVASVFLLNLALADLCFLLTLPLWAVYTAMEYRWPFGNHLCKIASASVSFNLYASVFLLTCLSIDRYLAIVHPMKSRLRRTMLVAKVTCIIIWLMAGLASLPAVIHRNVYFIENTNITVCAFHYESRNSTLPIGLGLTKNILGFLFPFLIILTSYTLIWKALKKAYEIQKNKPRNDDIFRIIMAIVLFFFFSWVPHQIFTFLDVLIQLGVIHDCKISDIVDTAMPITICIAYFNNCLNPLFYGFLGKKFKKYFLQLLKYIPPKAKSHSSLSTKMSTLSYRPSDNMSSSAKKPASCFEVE

IC50 [nM]	pIC50	Structure (SMILES)
130	6.886	CCCn1nc(C(C)C)c(C(=O)O)c1Cc1ccc(-c2ccccc2C(=O)O)cc1
12	7.92	CCCCn1nc(C)c(C(=O)O)c1Cc1ccc(-c2ccccc2S(=O)(=O)Nc2ccccc2)cc1
	8.567	CCCCn1nc(C)c(C(=O)O)c1Cc1ccc(-c2ccccc2-c2nn[nH]n2)cc1
3	8.522	CCCCc1nn(CCC)c(Cc2ccc(-c3ccccc3-c3nnn[nH]3)cc2)c1C(=O)O
7.4	8.13	CCCn1nc(C2CC2)c(C(N)=O)c1Cc1ccc(-c2ccccc2S(=O)(=O)Nc2ccccc2)cc1
13	7.522	CCCCOC(=O)NS(=O)(=O)c1ccccc1-c1ccc(Cc2c(C(=O)O)cnn2CCCC)cc1
74	7.13	CCCn1nc(C(C)C)c(C(=O)O)c1Cc1ccc(-c2ccccc2NS(=O)(=O)C(F)(F)F)cc1
18	7.744	CCCn1nc(C2CC2)c(C(=O)O)c1Cc1ccc(-c2ccccc2S(=O)(=O)Nc2ccccc2)cc1
	7.102	Cc1nn(-c2ccccc2)c(Cc2ccc(-c3ccccc3-c3nn[nH]n3)cc2)c1C(=O)O
